Data on 25 molecules can be found in patent publication US20250002507A1, “7,8-DIHYDRO-5H-1,6-NAPHTHYRIDINE DERIVATIVES AS POSITIVE ALLOSTERIC MODULATORS OF THE MUSCARINIC ACETYLCHOLINE RECEPTOR M4 FOR TREATING NEUROLOGICAL AND PSYCHIATRIC DISORDERS” (Vanderbilt University, priority 2021, published 2025).

By Emax is commonly meant the greatest response seen or fitted, relative to the assay's reference. As usually defined, the EC50 is the concentration needed to bring the measured effect to its halfway point.

For this assay, the target named is T1, Human M4 (Homo sapiens, UniProt P08173).
T1 construct: expressed in transfected cells
T1 sequence (P08173 1-479): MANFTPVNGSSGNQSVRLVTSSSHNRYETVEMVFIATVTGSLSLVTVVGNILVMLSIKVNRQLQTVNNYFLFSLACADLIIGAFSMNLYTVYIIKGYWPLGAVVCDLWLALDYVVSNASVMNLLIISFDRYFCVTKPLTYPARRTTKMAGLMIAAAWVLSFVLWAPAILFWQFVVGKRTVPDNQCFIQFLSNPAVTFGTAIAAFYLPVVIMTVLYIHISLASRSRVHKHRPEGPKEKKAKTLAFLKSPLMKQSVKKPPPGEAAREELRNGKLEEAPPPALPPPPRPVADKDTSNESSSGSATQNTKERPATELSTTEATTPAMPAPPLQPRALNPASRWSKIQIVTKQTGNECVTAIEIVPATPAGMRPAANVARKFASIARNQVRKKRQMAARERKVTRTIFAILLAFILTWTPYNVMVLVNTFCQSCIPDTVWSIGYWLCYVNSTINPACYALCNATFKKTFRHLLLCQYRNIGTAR
Description: mAChR M4 cell-based functional assay (calcium flux, potentiation of EC20 acetylcholine response), hM4-Gqi5 CHO-K1 cells. Conditions: for Emax at 30 µM: CHO-K1, % ACh maximum at 30 μM, human M4, read-out: Emax; for EC50: hM4-Gqi5 CHO-K1 cells, calcium flux, PAM of EC20 acetylcholine, read-out: Human M4 EC50. In outline: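 Positive allosteric modulation was scored as a concentration-dependent rise in the response to an EC20 dose of acetylcholine, added 144 s after the compound. Human M4-Gqi5 CHO-K1 cells carried Fluo-4 dye, and compounds ran as 11-point, 3-fold dilution series. EC50 and Emax came from four-parameter logistic fits of the FDSS fluorescence-ratio traces.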

The structures appear in SMILES notation.

As to `Cc1c(N2CCc3ncc(-c4cnn(Cc5ccccc5)c4)cc3C2)nn2cnnc2c1C` [Compound 63, 3-(1-benzylpyrazol-4-yl)-6-(7,8-dimethyl-[1,2,4]triazolo[4,3-b]pyridazin-6-yl)-7,8-dihydro-5H-1,6-naphthyridine], the Emax at 30 µM worked out at 94% and the half-maximal effective concentration (EC50) came to 262 nM.

As to `Cc1c(N2CCc3ncc(Nc4c(F)cccc4Cl)cc3C2)nn2cnnc2c1C` [Compound 64, N-(2-chloro-6-fluoro-phenyl)-6-(7,8-dimethyl-[1,2,4]triazolo[4,3-b]pyridazin-6-yl)-7,8-dihydro-5H-1,6-naphthyridin-3-amine], the Emax at 30 µM is 96% and the EC50 is 788 nM.

Take `COc1cccc(Nc2cnc3c(c2)CN(c2nn4cnnc4c(C)c2C)CC3)c1F` [Compound 65, 6-(7,8-dimethyl-[1,2,4]triazolo[4,3-b]pyridazin-6-yl)-N-(2-fluoro-3-methoxy-phenyl)-7,8-dihydro-5H-1,6-naphthyridin-3-amine]: the Emax at 30 µM was 104% and the EC50 is 188 nM.

`Cc1c(N2CCc3ncc(Nc4cccc(C(F)(F)F)c4F)cc3C2)nn2cnnc2c1C` [Compound 66, 6-(7,8-dimethyl-[1,2,4]triazolo[4,3-b]pyridazin-6-yl)-N-[2-fluoro-3-(trifluoromethyl)phenyl]-7,8-dihydro-5H-1,6-naphthyridin-3-amine]: the maximal effect (Emax) at 30 µM was 95% and the EC50 was 882 nM.

For `Cc1c(N2CCc3ncc(Nc4cccc(Cl)c4F)cc3C2)nn2cnnc2c1C` [Compound 67, N-(3-chloro-2-fluoro-phenyl)-6-(7,8-dimethyl-[1,2,4]triazolo[4,3-b]pyridazin-6-yl)-7,8-dihydro-5H-1,6-naphthyridin-3-amine], the Emax at 30 µM was determined as 86% and the EC50 stood at 219 nM.

As for `Cc1c(N2CCc3ncc(Nc4ccc(Cl)cc4F)cc3C2)nn2cnnc2c1C` [Compound 68, N-(4-chloro-2-fluoro-phenyl)-6-(7,8-dimethyl-[1,2,4]triazolo[4,3-b]pyridazin-6-yl)-7,8-dihydro-5H-1,6-naphthyridin-3-amine], the Emax at 30 µM is 96% and the EC50 amounted to 386 nM.

As to `Cc1ccc(F)c(Nc2cnc3c(c2)CN(c2nn4cnnc4c(C)c2C)CC3)c1` [Compound 69, 6-(7,8-dimethyl-[1,2,4]triazolo[4,3-b]pyridazin-6-yl)-N-(2-fluoro-5-methyl-phenyl)-7,8-dihydro-5H-1,6-naphthyridin-3-amine], the Emax at 30 µM amounted to 90% and the EC50 was determined as 296 nM.

As to `Cc1c(N2CCc3ncc(Nc4ccc(F)cc4F)cc3C2)nn2cnnc2c1C` [Compound 70, N-(2,4-difluorophenyl)-6-(7,8-dimethyl-[1,2,4]triazolo[4,3-b]pyridazin-6-yl)-7,8-dihydro-5H-1,6-naphthyridin-3-amine], the Emax at 30 µM came out at 101% and the EC50 was 205 nM.

As for `[2H]c1nnc2c(C)c(C)c(N3CCc4ncc(Nc5ccccc5F)cc4C3)nn12` [Compound 71, 6-(3-deuterio-7,8-dimethyl-[1,2,4]triazolo[4,3-b]pyridazin-6-yl)-N-(2-fluorophenyl)-7,8-dihydro-5H-1,6-naphthyridin-3-amine], the maximal response (Emax) at 30 µM is 102% and the EC50 stood at 65.6 nM.

Turning to `[2H]c1nnc2c(C)c(C)c(N3CCc4ncc(Nc5cc(F)ccc5F)cc4C3)nn12` [Compound 72, 6-(3-deuterio-7,8-dimethyl-[1,2,4]triazolo[4,3-b]pyridazin-6-yl)-N-(2,5-difluorophenyl)-7,8-dihydro-5H-1,6-naphthyridin-3-amine], the Emax at 30 µM was 97% and the EC50 came to 49.7 nM.

In the case of `[2H]c1nnc2c(C)c(C)c(N3CCc4ncc(Nc5cc(F)cc(F)c5F)cc4C3)nn12` [Compound 73, 6-(3-deuterio-7,8-dimethyl-[1,2,4]triazolo[4,3-b]pyridazin-6-yl)-N-(2,3,5-trifluorophenyl)-7,8-dihydro-5H-1,6-naphthyridin-3-amine], the Emax at 30 µM was 92% and the EC50 is 114 nM.

On to `[2H]c1nnc2c(C)c(C)c(N3CCc4ncc(-c5c(C)noc5C)cc4C3)nn12` [Compound 74, 4-[6-(3-deuterio-7,8-dimethyl-[1,2,4]triazolo[4,3-b]pyridazin-6-yl)-7,8-dihydro-5H-1,6-naphthyridin-3-yl]-3,5-dimethyl-isoxazole], for which the Emax at 30 µM was 103% and the EC50 was determined as 108 nM.

Turning to `[2H]c1nnc2c(C)c(C)c(N3CCc4ncc(-c5c(C)nn(C)c5C)cc4C3)nn12` [Compound 75, 6-(3-deuterio-7,8-dimethyl-[1,2,4]triazolo[4,3-b]pyridazin-6-yl)-3-(1,3,5-trimethylpyrazol-4-yl)-7,8-dihydro-5H-1,6-naphthyridine], the Emax at 30 µM stood at 99% and the EC50 came out at 164 nM.

On to `[2H]c1nnc2c(C)c(C)c(N3CCc4ncc(-c5cn(C)nc5C)cc4C3)nn12` [Compound 76, 6-(3-deuterio-7,8-dimethyl-[1,2,4]triazolo[4,3-b]pyridazin-6-yl)-3-(1,3-dimethylpyrazol-4-yl)-7,8-dihydro-5H-1,6-naphthyridine], for which the Emax at 30 µM came to 101% and the EC50 was 127 nM.

As for `[2H]c1nnc2c(C)c(C)c(N3CCc4ncc(-c5cnn(CC6CC6)c5)cc4C3)nn12` [Compound 77, 3-[1-(cyclopropylmethyl)pyrazol-4-yl]-6-(3-deuterio-7,8-dimethyl-[1,2,4]triazolo[4,3-b]pyridazin-6-yl)-7,8-dihydro-5H-1,6-naphthyridine], the Emax at 30 µM worked out at 89% and the EC50 worked out at 216 nM.

Consider `[2H]c1nnc2c(C)c(C)c(N3CCc4ncc(-c5cncs5)cc4C3)nn12` [Compound 78, 5-[6-(3-deuterio-7,8-dimethyl-[1,2,4]triazolo[4,3-b]pyridazin-6-yl)-7,8-dihydro-5H-1,6-naphthyridin-3-yl]thiazole], for which the Emax at 30 µM is 92% and the EC50 was determined as 63.9 nM.

For `Cc1c(N2CCc3ncc(Nc4ncc(F)cc4F)cc3C2)nn2cnnc2c1C` [Compound 79, N-(3,5-difluoro-2-pyridyl)-6-(7,8-dimethyl-[1,2,4]triazolo[4,3-b]pyridazin-6-yl)-7,8-dihydro-5H-1,6-naphthyridin-3-amine], the Emax at 30 µM was 62% and the EC50 is 180 nM.

As to `Cc1c(N2CCc3ncc(Nc4ncccc4F)cc3C2)nn2cnnc2c1C` [Compound 80, 6-(7,8-dimethyl-[1,2,4]triazolo[4,3-b]pyridazin-6-yl)-N-(3-fluoro-2-pyridyl)-7,8-dihydro-5H-1,6-naphthyridin-3-amine], the Emax at 30 µM amounted to 72% and the EC50 was 176 nM.

For the molecule `Cc1ccc(Nc2cnc3c(c2)CN(c2nn4cnnc4c(C)c2C)CC3)c(F)n1` [Compound 81, 6-(7,8-dimethyl-[1,2,4]triazolo[4,3-b]pyridazin-6-yl)-N-(2-fluoro-6-methyl-3-pyridyl)-7,8-dihydro-5H-1,6-naphthyridin-3-amine], the Emax at 30 µM came out at 94% and the EC50 is 169 nM.

On to `Cc1c(N2CCc3ncc(Nc4cccnc4F)cc3C2)nn2cnnc2c1C` [Compound 82, 6-(7,8-dimethyl-[1,2,4]triazolo[4,3-b]pyridazin-6-yl)-N-(2-fluoro-3-pyridyl)-7,8-dihydro-5H-1,6-naphthyridin-3-amine], for which the Emax at 30 µM is 99% and the EC50 turned out to be 119 nM.

Take `Cc1c(N2CCc3ncc(Nc4ccccc4F)cc3C2)nn2c(C)nnc2c1C` [Compound 83, N-(2-fluorophenyl)-6-(3,7,8-trimethyl-[1,2,4]triazolo[4,3-b]pyridazin-6-yl)-7,8-dihydro-5H-1,6-naphthyridin-3-amine]: the Emax at 30 µM was 99% and the EC50 amounted to 361 nM.

As for `Cc1c(N2CCc3ncc(Nc4cc(F)ccc4F)cc3C2)nn2c(C)nnc2c1C` [Compound 84, N-(2,5-difluorophenyl)-6-(3,7,8-trimethyl-[1,2,4]triazolo[4,3-b]pyridazin-6-yl)-7,8-dihydro-5H-1,6-naphthyridin-3-amine], the Emax at 30 µM was determined as 99% and the EC50 was 210 nM.

As to `Cc1c(N2CCc3ncc(Nc4cc(F)cc(F)c4F)cc3C2)nn2c(C)nnc2c1C` [Compound 85, N-(2,3,5-trifluorophenyl)-6-(3,7,8-trimethyl-[1,2,4]triazolo[4,3-b]pyridazin-6-yl)-7,8-dihydro-5H-1,6-naphthyridin-3-amine], the Emax at 30 µM came out at 92% and the EC50 is 352 nM.

Take `Cc1noc(C)c1-c1cnc2c(c1)CN(c1nn3c(C)nnc3c(C)c1C)CC2` [Compound 86, 3,5-dimethyl-4-[6-(3,7,8-trimethyl-[1,2,4]triazolo[4,3-b]pyridazin-6-yl)-7,8-dihydro-5H-1,6-naphthyridin-3-yl]isoxazole]: the Emax at 30 µM turned out to be 84% and the EC50 came out at 227 nM.

`Cc1nn(C)c(C)c1-c1cnc2c(c1)CN(c1nn3c(C)nnc3c(C)c1C)CC2` [Compound 87, 3-(1,3,5-trimethylpyrazol-4-yl)-6-(3,7,8-trimethyl-[1,2,4]triazolo[4,3-b]pyridazin-6-yl)-7,8-dihydro-5H-1,6-naphthyridine]: the Emax at 30 µM stood at 89% and the EC50 came out at 188 nM.
